From US6313305A, “Cephalosporins” (Hoechst Marion Roussel, priority 1991, dated 2001)
In brackets after ≈: the same amount, converted by molar mass. Structures can show the parent of a compound that is named as a salt.

Legend:
Type in all cases: cell-based
[1] = system: oracillin-sensitive penicillin-resistants Staphylococci aureus (20 strains); assay: In vitro activity, method of dilutions in solid medium (TABLE II): oracillin-sensitive penicillin-resistant Staphylococcus aureus; settings: 24 hours at 37° C.
Experimental: (§1) In Vitro Activity, Method of Dilutions in Solid Medium
(§2) A series of dishes was prepared in which an equal amount of sterile nutritional medium was distributed containing increasing amounts of the test product. Then, each dish was seeded with several bacteria strains and after incubation in an oven for 24 hours at 37° C., the growth inhibition was evaluated by the absence of any bacterial development, which allowed the minimal inhibiting concentrations (M.I.C.) to be determined expressed in micrograms/ml. The results were expressed in M.I.C. 90 which is the minimum concentration of antibiotic allowing the growth of the strains studied to be inhibited by […] (TABLE II).

[2] = system: Enterobacteria producting β lactamase with enlarged spectrum (16 strains); assay: In vitro activity, method of dilutions in solid medium (TABLE II): Enterobacteria producing β lactamase with enlarged spectrum; settings: 24 h
Experimental: as §1, §2

[3] = system: Pseudomonas Aeruginosa (39 strains); assay: In vitro activity, method of dilutions in solid medium (TABLE II): Pseudomonas aeruginosa; settings: 24 hours at 37° C.
Experimental: as §1, §2

[4] = system: Enterobacteria producing cephalosporinases (20 strains); assay: In vitro activity, method of dilutions in solid medium (TABLE II): Enterobacteria producing cephalosporinases; settings: 24 h
Experimental: as §1, §2

SMILES	MIC90 [1] [µg/mL]	MIC90 [2] [µg/mL]	MIC90 [3] [µg/mL]	MIC90 [4] [µg/mL]
Nc1nc(/C(=N/OC(C(=O)O)c2cc(Cl)c(O)c(O)c2Cl)C(=O)N[C@@H]2C(=O)N3C(C(=O)[O-])=C(/C=C/C[n+]4cccc5c4CCC5)CS[C@H]23)cs1 (stereo partly drawn) [Example 27, Internal salt of (6R-(3-(E) 6α, 7β-(Z)))-1-(3-(7-(((2-amino-4-thiazolyl)-(carboxy-(2,5-dichloro-3,4-dihydroxy-phenyl)-methoxy)-imino)-acetamido)-2-carboxy-8-oxo-5-thia-1-azabicyclo[4,2,0]oct-2-en-3-yl)-2-propenyl)-6,7-dihydro-5H-pyrindinium]	5	10	0.08	0.3
Nc1nc(/C(=N/OC(C(=O)O)c2cc(F)c(O)c(O)c2F)C(=O)N[C@@H]2C(=O)N3C(C(=O)[O-])=C(/C=C/C[n+]4ccn5ccccc54)CS[C@H]23)cs1 (stereo partly drawn) [Example 39, Internal Salt of (6R-(3-(E) 6α, 7β(Z)))-1-(3-(7-(((2-Amino-4-thiazolyl)(carboxy-(2,5-difluoro-3,4-dihydroxyphenyl)-methoxy)-imino)-acetamido)-2-carboxy-8-oxo-5-thia-1-azabicyclo[4,2,0]oct-2-en-3-yl)-2-propenyl)-imidazo(1,2-a)pyridinium]	2.5	2.5	0.08	0.3
COc1cc(C(O/N=C(\C(=O)N[C@@H]2C(=O)N3C(C(=O)[O-])=C(/C=C/C[n+]4cccc5ccccc54)CS[C@H]23)c2csc(N)n2)C(=O)O)c(Cl)c(O)c1O (stereo partly drawn) [Example 43]	0.3 (≈ 0.391 µM)	1.2 (≈ 1.56 µM)	1.2 (≈ 1.56 µM)	2.5 (≈ 3.26 µM)
